The target in this experiment is T1, KRAS G12C 1-169, his-tagged protein, GDP-loaded (Homo sapiens, UniProt P01116, G12C).
T1 construct: KRAS G12C 1-169, his-tagged protein, GDP-loaded
T1 sequence (P01116 1-169 isoform P01116-2 G12C): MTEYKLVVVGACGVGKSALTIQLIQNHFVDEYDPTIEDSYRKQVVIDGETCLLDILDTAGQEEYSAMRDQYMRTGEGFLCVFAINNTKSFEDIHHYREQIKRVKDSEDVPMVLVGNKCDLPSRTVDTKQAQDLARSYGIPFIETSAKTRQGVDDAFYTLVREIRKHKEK
The experiment is described as follows: Biochemical assay: covalent binding to KRAS G12C analyzed by mass spectrometry. Conditions: compounds 1-47, measured at 24 h. As for the experimental part: Compounds were tested for activity as follows:
Compounds were diluted to 50× final test concentration in DMSO in 96-well storage plates. […] Reactions were mixed carefully and thoroughly by pipetting up/down with a 200 μl multi-channel pipettor. […] 5 μl of 2% formic acid (Fisher cat#A117) in DI H2O was then added to each well followed by mixing with a pipette. The plate was then resealed with aluminum seal and stored on dry ice until analyzed as described below.
The above described assays were analyzed by mass spectrometry according to the following procedure:
The MS instrument is set to positive polarity, 2 GHz resolution, and low mass (1700) mode and allowed to equilibrate for 30 minutes. The instrument is then calibrated, switched to acquisition mode and the appropriate method loaded.
After another 30 minute equilibration time, a blank batch (i.e., buffer) is run to ensure equipment is operating properly. The samples are thawed at 37° C. for 10 minutes, briefly centrifuged, and transfer to the bench top. Wells A1 and H12 are spiked with 1 μL 500 μM internal standard peptide, and the plates centrifuged at 2000×g for 5 minutes. The method is then run and masses of each individual well recorded.
The masses (for which integration data is desired) for each well are pasted into the platemap and exported from the analysis. Masses for the internal standards are exported as well. The data at 50 ppm is extracted for the +19 charge state, and identity of well A1 is assigned using the internal standard spike and integrated. Peak data is exported as a TOF list and the above steps are repeated individually, for the +20, 21, 22, 23, 24, and 25 charge states.
Take `C=CC(=O)N1CCN(c2ncnc3cc(Cl)c(-c4cccc(Cl)c4)cc23)CC1` [Compound I-5, 1-(4-(7-chloro-6-(3-chlorophenyl)quinazolin-4-yl)piperazin-1-yl)prop-2-en-1-one]: the Binding % result is “+++ (+++indicates binding activity greater than 50% and up to 75%)”.
Turning to `C=CC(=O)N1CCN(c2ncnc3cc(Cl)c(-c4ccc(Cl)cc4Cl)cc23)CC1` [Compound I-6, 1-(4-(7-chloro-6-(2,4-dichlorophenyl)quinazolin-4-yl)piperazin-1-yl)prop-2-en-1-one], the Binding % result was “+++ (+++indicates binding activity greater than 50% and up to 75%)”.
Turning to `C=CC(=O)N1CCN(c2ncnc3cc(Cl)c(-c4ccc(Cl)c(Cl)c4)cc23)CC1` [Compound I-7, 1-(4-(7-chloro-6-(3,4-dichlorophenyl)quinazolin-4-yl)piperazin-1-yl)prop-2-en-1-one], the Binding % result is recorded as “++++ (++++indicates binding activity greater than 75%)”.
The value for `C=CC(=O)N1CCN(c2ncnc3cc(Cl)c(-c4ccccc4C#N)cc23)CC1` [Compound I-8, 2-(4-(4-acryloylpiperazin-1-yl)-7-chloroquinoazlin-6-yl)benzonitrile] was “++ (++indicates binding activity greater than 25% and up to 50%)”; that for `C=CC(=O)N1CCN(c2ncnc3cc(Cl)c(-c4cc(Cl)ccc4Cl)cc23)CC1` [Compound I-9, 1-(4-(7-chloro-6-(2,5-dichlorophenyl)quinazolin-4-yl)piperazain-1-yl)prop-2-en-1-one] was “+++ (+++indicates binding activity greater than 50% and up to 75%)”.
The value for `C=CC(=O)N1CCN(c2ncnc3cc(Cl)c(-c4cc(Cl)ccc4O)cc23)CC1` [Compound I-10, 1-(4-(7-chloro-6-(5-chloro-2-hydroxyphenyl)quinazolin-4-yl)piperazin-1-yl)prop-2-en-1-one] was “++ (++indicates binding activity greater than 25% and up to 50%)”.
For `C=CC(=O)N1CCN(c2ncnc3cc(Cl)c(-c4ccc(Cl)cc4O)cc23)CC1` [Compound I-11, 1-(4-(7-chloro-6-(4-chloro-2-hydroxyphenyl)quinoazlin-4-yl)piperazin-1-yl)prop-2-en-1-one] the value was “++++ (++++indicates binding activity greater than 75%)”; for `C=CC(=O)N1CCN(c2ncnc3cc(Cl)c(-c4ccc(O)cc4)cc23)CC1` [Compound I-12, 1-(4-(7-chloro-6-(4-hydroxyphenyl)quinazolin-4-yl)piperazin-1-yl)prop-2-en-1-one], “+ (+indicates binding activity from 5% to 25%)”.
Turning to `C=CC(=O)N1CCN(c2ncnc3cc(Cl)c(-c4ccc(Cl)cc4OC)cc23)CC1` [Compound I-13, 1-(4-(7-chloro-6-(4-chloro-2-methoxyphenyl)quinoazlin-4-yl)piperazin-1-yl)prop-2-en-1-one], the Binding % result is “++ (++indicates binding activity greater than 25% and up to 50%)”.
The value for `C=CC(=O)N1CCN(c2ncnc3cc(Cl)c(-c4cccc(O)c4)cc23)CC1` [Compound I-14, 1-(4-(7-chloro-6-(3-hydroxyphenyl)quinazolin-4-yl)piperazin-1-yl)prop-2-en-1-one] was “++ (++indicates binding activity greater than 25% and up to 50%)”; that for `C=CC(=O)N1CCN(c2ncnc3cc(Cl)c(-c4ccccc4O)cc23)CC1` [Compound I-15, 1-(4-(7-chloro-6-(2-hydroxyphenyl)quinoazlin-4-yl)piperazin-1-yl)prop-2-en-1-one] was “+++ (+++indicates binding activity greater than 50% and up to 75%)”; that for `C=CC(=O)N1CCN(c2ncnc3cc(Cl)c(-c4ccc(C#N)cc4)cc23)CC1` [Compound I-16, 4-(4-(4-acryloylpiperazin-1-yl)-7-chloroquinazolin-6-yl)benzonitrile] was “++ (++indicates binding activity greater than 25% and up to 50%)”.
For `C=CC(=O)N1CCN(c2ncnc3cc(Cl)c(-c4ccncc4)cc23)CC1` [Compound I-17, 1-(4-(7-chloto-6-(pyridin-4-yl)quinazolin-4-yl)piperazin-1-yl)prop-2-en-1-one] the value was “+ (+indicates binding activity from 5% to 25%)”; for `C=CC(=O)N1CCN(c2ncnc3cc(Cl)c(-c4ccccc4)cc23)CC1` [Compound I-18, 1-(4-(7-chloro-6-phenylquinazolin-4-yl)piperazin-1-yl)prop-2-en-1-one], “++ (++indicates binding activity greater than 25% and up to 50%)”; for `C=CC(=O)N1CCN(c2ncnc3cc(Cl)c(-c4cccc(C#N)c4)cc23)CC1` [Compound I-19, 3-(4-(4-acryloylpiperazin-1-yl)-7-chloroquinazolin-6-yl)benzonitrile], “++ (++indicates binding activity greater than 25% and up to 50%)”.
In the case of `C=CC(=O)N1CCN(c2ncnc3cc(Cl)c(-c4cccnc4)cc23)CC1` [Compound I-20, 1-(4-(7-chloro-6-(pyridin-3-yl)quinazolin-4-yl)piperazin-1-yl)prop-2-en-1-one], the Binding % entry is “+ (+indicates binding activity from 5% to 25%)”.
For `C=CC(=O)N1CCN(c2ncnc3cc(Cl)c(-c4cccs4)cc23)CC1` [Compound I-21, 1-(4-(7-chloro-6-(thiophen-2-yl)quinazolin-4-yl)piperazin-1-yl)prop-2-en-1-one] the value was “+++ (+++indicates binding activity greater than 50% and up to 75%)”; for `C=CC(=O)N1CCN(c2ncnc3cc(Cl)c(-c4cc(F)ccc4Cl)cc23)CC1` [Compound I-23, 1-(4-(7-chloro-6-(2-chloro-5-fluorophenyl)quinazolin-4-yl)piperazin-1-yl)prop-2-en-1-one], “++ (++indicates binding activity greater than 25% and up to 50%)”; for `C=CC(=O)N1CCN(c2nccc3cc(Cl)c(-c4ccccc4Cl)cc23)CC1` [Compound I-24, 1-(4-(6-chloro-7-(2-chlorophenyl)isoquinolin-1-yl)piperazin-1-yl)prop-2-en-1-one], “+ (+indicates binding activity from 5% to 25%)”.
The value for `CN(C)C/C=C/C(=O)N1CCN(c2ncnc3cc(Cl)c(-c4ccccc4Cl)cc23)CC1` [Compound I-25, (E)-1-(4-(7-chloro-6-(2-chlorophenyl)quinazolin-4-yl)piperazin-1-yl)-4-(dimethylamino)but-2-en-1-one] was “++ (++indicates binding activity greater than 25% and up to 50%)”; that for `C=CC(=O)N1CCN(c2ncnc3cc(Cl)c(-c4ccc(C)s4)cc23)CC1` [Compound I-26, 1-(4-(7-chloro-6-(5-methylthiophen-2-yl)quinazolin-4-yl)piperazin-1-yl)prop-2-en-1-one] was “++ (++indicates binding activity greater than 25% and up to 50%)”.
The value for `C=CC(=O)N1CCN(c2ccnc3cc(Cl)c(-c4ccccc4Cl)cc23)CC1` [Compound I-27, 1-(4-(7-chloro-6-(2-chlorophenyl)quinolin-4-yl)piperazin-1-yl)prop-2-en-1-one] was “++ (++indicates binding activity greater than 25% and up to 50%)”; that for `C=CC(=O)N1CCN(c2ncnc3[nH]cc(-c4ccccc4Cl)c23)CC1` [Compound I-28, 1-(4-(5-(2-chlorophenyl)-7H-pyrrolo[2,3-d]pyrimidin-4-yl)piperazin-1-yl)prop-2-en-1-one] was “+ (+indicates binding activity from 5% to 25%)”.
As to `C=CC(=O)NC1CN(c2ncnc3cc(Cl)c(-c4ccccc4Cl)cc23)C1` [Compound I-29, N-(1-(7-chloro-6-(2-chlorophenyl)quinazolin-4-yl)azetidin-3-yl)acrylamide], the Binding % entry is recorded as “+ (+indicates binding activity from 5% to 25%)”.
The value for `C=CC(=O)N1CC(Nc2ncnc3cc(Cl)c(-c4ccccc4Cl)cc23)C1` [Compound I-30, 1-(3-(7-chloro-6-(2-chlorophenyl)quinazolin-4-ylamino)azetidin-1-yl)prop-2-en-1-one] was “+ (+indicates binding activity from 5% to 25%)”; that for `C=CC(=O)N1CCC(Nc2n[nH]c3cc(Cl)c(-c4ccccc4Cl)cc23)CC1` [Compound I-31, 1-(4-(6-chloro-5-(2-chlorophenyl)-1H-indazol-3-ylamino)piperidin-1-yl)prop-2-en-1-one] was “+ (+indicates binding activity from 5% to 25%)”.
The value for `C=CC(=O)N1CCN(c2ncnc3cc(Cl)c(N4CCOCC4)cc23)CC1` [Compound I-32, 1-(4-(7-chloro-6-morpholinoquinazolin-4-yl)piperazin-1-yl)prop-2-en-1-one] was “+ (+indicates binding activity from 5% to 25%)”; that for `C=CC(=O)N1CCN(c2ncnc3cc(F)c(-c4ccccc4Cl)cc23)CC1` [Compound I-33, 1-(4-(6-(2-chlorophenyl)-7-fluoroquinazolin-4-yl)piperazin-1-yl)prop-2-en-1-one] was “++ (++indicates binding activity greater than 25% and up to 50%)”; that for `C=CC(=O)N1CCN(c2ncnc3cc(Cl)c(-c4ccc(Cl)s4)cc23)CC1` [Compound I-34, 1-(4-(7-chloro-6-(5-chlorothiophen-2-yl)quinazolin-4-yl)piperazin-1-yl)prop-2-en-1-one] was “+++ (+++indicates binding activity greater than 50% and up to 75%)”.

These data come from patent publication US10111874B2, “Combination therapies for treatment of cancer” (Araxes Pharma LLC, priority 2014, dated 2018).
